Test results from patent publication US9096539B2, “Substituted 4,5-dihydro-2H-benzo[e]indazole-9-carboxylates for the treatment of diabetes and related disorders” (Council of Scientific & Industrial Research, priority 2012, dated 2015).

Test system: low dosed STZ induced diabetic rats
Assay: Antihyperglycaemic activity in low dosed streptozotocin induced diabetic rats (STZ)
Assay type: in vivo, rat
Conditions: for Blood Glucose Profile 0 min (Pre treatment): 0 min pre treatment (fasting baseline); for Blood Glucose Profile 0 min (Pre treatment) / Blood Glucose Profile 30 min (Post treatment) / Blood Glucose Profile 60 min (Post treatment) / Blood Glucose Profile 90 min (Post treatment) / Blood Glucose Profile 120 min (Post treatment) / Blood Glucose Profile 180 min (Post treatment) / Blood Glucose Profile 240 min (Post treatment) / Blood Glucose Profile 300 min (Post treatment) / Blood Glucose Profile 1440 min (Post treatment) / % Antihyperglycaemic activity STZ 0-5 h AUC / % Antihyperglycaemic activity STZ 0-24 h AUC: low dosed STZ diabetic rats, compounds 100 mg/kg, Januvia 50 mg/kg; for % Antihyperglycaemic activity STZ 0-5 h AUC / % Antihyperglycaemic activity STZ 0-24 h AUC: oral; for lowering in the hyperglycaemia of the diabetic rats: low dosed streptozotocin induced diabetic rats, 100 mg/kg, result in words
Method: The test compounds and standard antidiabetic drug Januvia were prepared in 1.0% freshly prepared Gum acacia.
Assessment of Test Compounds for Antihyperglycaemic Activity in Low Dosed Streptozotocin Induced Diabetic Rats—
Induction of Diabetes in Rats:
Overnight starved male albino rats of Sprague Dawley strain were used and Diabetes was induced in the animals by single intraperitoneal injection of Streptozotocin at 60 mg/kg body weight dose prepared in 0.1M citrate buffer (pH 4.5). Fasting blood glucose level was measured by using a Glucometer (ACCU-CHEK II; Roche Diagnostics, USA) after 48 hours and animals showing blood glucose level above 300 mg/di were considered as diabetic.
The diabetic animals were divided into four groups (Group 1 to 4) each consisting 6 rats. Group 1 received 0.4 ml vehicle (1% gum acacia). Group 2 received the test compound 5 at an oral dose of 100 mg/kg/body weight. Group 3 was given compound 6 at an oral dose of 100 mg/kg/body weight. The standard antidiabetic drug Januvia was given to the animals of Group 4 at an oral dose of 50 mg/kg body weight. […] Food but not water was withheld from the cages during the course of experimentation. Percent hyperglycemic activity was determined by comparing the AUC (area under curve) of experimental groups with that of the vehicle treated control group.
Quantitative glucose tolerance of each animal was calculated by the area under the curve (AUC) method using Prism Software. The area under the curve of the control group and the experimental group was compared to determine the percent antihyperglycaemic activity. Statistical comparisons were performed by one-way analysis of variance (ANOVA), followed by Dunnett's multiple range test (DMRT). The results were considered statistically significant if the ‘p’ values were 0.05 or less. Results were expressed as mean±SEM.

Row | SMILES | Blood Glucose Profile 0 min (Pre treatment) [mg/dL] | Blood Glucose Profile 30 min (Post treatment) [mg/dL] | Blood Glucose Profile 60 min (Post treatment) [mg/dL] | Blood Glucose Profile 90 min (Post treatment) [mg/dL] | Blood Glucose Profile 120 min (Post treatment) [mg/dL] | Blood Glucose Profile 180 min (Post treatment) [mg/dL] | Blood Glucose Profile 240 min (Post treatment) [mg/dL] | Blood Glucose Profile 300 min (Post treatment) [mg/dL] | Blood Glucose Profile 1440 min (Post treatment) [mg/dL] | % Antihyperglycaemic activity STZ 0-5 h AUC [%] | % Antihyperglycaemic activity STZ 0-24 h AUC [%] | lowering in the hyperglycaemia of the diabetic rats
1 | COC(=O)c1c(SC)cc(-c2ccc(C)cc2)c2c1-c1cn(-c3ccccc3)nc1CC2 [compound 5, methyl 8-(methylthio)-2-phenyl-6-p-tolyl-4,5-dihydro-2H-benzo[e]indazole-9-carboxylate] | 346.6 ± 6.19 | 434.2 ± 12.4 | 481.2 ± 11.8 | 447.0 ± 8.16 | 434.8 ± 11.7 | 385.6 ± 5.8 | 353.6 ± 16.4 | 362.4 ± 17.6 | 483.0 ± 3.95 | 23.1 | 18.2 | significant lowering in the hyperglycaemia
2 | COC(=O)c1c(SC)cc(-c2cccc3ccccc23)c2c1-c1cn(-c3ccccc3)nc1CC2 [compound 6, methyl 8-(methylthio)-6-(naphthalen-1-yl)-2-phenyl-4,5-dihydro-2H-benzo[e]indazole-9-carboxylate] | 344.0 ± 3.91 | 444.6 ± 16.6 | 492.0 ± 13.6 | 490.2 ± 11.2 | 474.8 ± 15.0 | 426.0 ± 16.0 | 385.8 ± 15.6 | 355 ± 14.3 | 442.4 ± 9.64 | 18.9 | 20.1 | significant lowering in the hyperglycaemia
